The record followed here is patent publication US12116358B2, “Substituted indoles and methods of use thereof” (EPIZYME, INC., priority 2018, dated 2024).

The structures appear in SMILES notation. Some results are limits rather than exact numbers.

In this assay the target is T1, SETD2(1434-1711) (Homo sapiens, UniProt Q9BYW2).
T1 construct: SETD2 (1434-1711) Assay; catalogue N/A
T1 sequence (Q9BYW2 1434-1711): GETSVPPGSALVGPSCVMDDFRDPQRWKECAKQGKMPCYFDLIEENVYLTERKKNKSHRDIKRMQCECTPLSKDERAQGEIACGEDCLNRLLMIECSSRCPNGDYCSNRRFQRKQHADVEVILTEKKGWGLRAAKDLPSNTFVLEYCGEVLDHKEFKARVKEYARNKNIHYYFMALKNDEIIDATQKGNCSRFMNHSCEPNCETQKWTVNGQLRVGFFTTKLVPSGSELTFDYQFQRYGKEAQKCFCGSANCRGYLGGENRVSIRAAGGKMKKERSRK
Put plainly: SETD2 (1434-1711) assay. As to conditions: read-out: SETD2 (1434-1711). The class given is biochemical.
For the compound `Cc1cccc2cc(C(=O)N[C@H]3C[C@H]4CC[C@@H]3CN4C(=O)CCN)[nH]c12` [compound 631], the IC50 is 15.3 µM.
In the case of `Cc1ccc(F)c2cc(C(=O)N[C@@H]3CCC[C@@H](N4CCN(C(=O)C5CC5)CC4)C3)[nH]c12` [compound 831] it was 2.3 µM; in that of `Cc1cccc2cc(C(=O)N[C@H](CO)c3ccccc3)[nH]c12` [compound 703], 70.7 µM.
The same measure for `Cc1cccnc1C(CCN(C)C)NC(=O)c1cc2cccc(C)c2[nH]1` (stereo not shown) [compound 728]: 127 µM; for `Cc1cccc2cc(C(=O)NC(c3cccc(CC(N)=O)n3)C3CC3)[nH]c12` (stereo not shown) [compound 667]: 34.5 µM.
In the case of `COC(=O)CC(NC(=O)c1cc2cccc(C)c2[nH]1)c1cccc(OC)c1` (stereo not shown) [compound 659] it was 27.4 µM; in that of `Cc1ccc(F)c2cc(C(=O)N[C@@H]3CCC[C@@H](N4CCCNC(=O)C4)C3)[nH]c12` [compound 822], 8.3 µM; in that of `CCOC(=O)C(NC(=O)c1cc2cccc(C)c2[nH]1)C(F)(F)F` (stereo not shown) [compound 675], 37.7 µM.
Turning to `Cc1cccc2cc(C(=O)NCc3cccc(S(=O)(=O)N4CCCCC4)c3)[nH]c12` [compound 751], the IC50 was above 200 µM.
Consider `Cc1cccc2cc(C(=O)Nc3ccccn3)[nH]c12` [compound 673], for which the IC50 worked out at 36 µM.
In the case of `COC(=O)CC(NC(=O)c1cc2cccc(C)c2[nH]1)c1ccccc1C` (stereo not shown) [compound 677] it was 39.5 µM; in that of `Cc1cccc2cc(C(=O)N3CCc4ccccc4C3)[nH]c12` [compound 684], above 50 µM.
On to `Cc1cccc2cc(C(=O)NC3CC4CCC(C3)C4NC(=O)CCN)[nH]c12` (stereo not shown) [compound 640], for which the IC50 came to 18.5 µM.
The same measure for `Cc1cccc2cc(C(=O)N3CCn4cnnc4C3)[nH]c12` [compound 811]: above 200 µM; for `Cc1cccc2cc(C(=O)NCC(O)C(F)F)[nH]c12` (stereo not shown) [compound 784]: above 200 µM; for `Cc1cccc2cc(C(=O)N[C@@H]3C[C@H]4CC[C@@H]3CN4C(=O)CCN)[nH]c12` [compound 672]: 35.9 µM.
The same measure for `CNC(=O)CC(NC(=O)c1cc2cccc(C)c2[nH]1)c1ncccc1C` (stereo not shown) [compound 682]: 45.4 µM.
Regarding `COC(=O)CC(NC(=O)c1cc2cccc(C)c2[nH]1)c1cccnc1` (stereo not shown) [compound 671], the IC50 was found to be 35.4 µM.
The same measure for `Cc1c(C(=O)N[C@H]2CC[C@H](NC(=O)CCN)CC2)[nH]c2c(C)cccc12` [compound 655]: 25.1 µM.
The same measure for `Cc1cccc2cc(C(=O)NC(c3ccccn3)C3CC3)[nH]c12` (stereo not shown) [compound 660]: 27.9 µM.
Take `Cc1ccc(F)c2cc(C(=O)N[C@@H]3CCC[C@H](N4CCN(C(=O)C5CC5)CC4)C3)[nH]c12` [compound 830]: the IC50 worked out at 0.04 µM.
Take `Cc1nc(CCNC(=O)c2cc3cccc(C)c3[nH]2)no1` [compound 782]: the IC50 was above 200 µM.
As for `Cc1cc(CNC(=O)c2cc3cccc(C)c3[nH]2)no1` [compound 719], the IC50 was determined as 107 µM.
In the case of `Cc1cccc2cc(C(=O)N3CCN(c4ncccc4C(N)=O)CC3)[nH]c12` [compound 757] it was above 200 µM.
Take `Cc1nc(CNC(=O)c2cc3cccc(C)c3[nH]2)c(C)o1` [compound 721]: the IC50 worked out at 113 µM.
The same measure for `Cc1cccc2cc(C(=O)NCc3ccc(S(=O)(=O)N4CCCCC4)cc3)[nH]c12` [compound 758]: above 200 µM.
Take `Cc1cccc2cc(C(=O)NCc3ccccc3Cl)[nH]c12` [compound 1153]: the IC50 is above 200 µM.
For the compound `Cc1cccc2cc(C(=O)NCc3ccccc3OCC3CC3)[nH]c12` [compound 767], the IC50 is above 200 µM.
In the case of `Cc1cccc2cc(C(=O)Nc3cccc(CN4CCOCC4)n3)[nH]c12` [compound 633] it was 16.2 µM; in that of `Cc1cccc2cc(C(=O)NC(C)c3ccc(-n4cccn4)cc3)[nH]c12` (stereo not shown) [compound 652], 24.8 µM; in that of `Cc1cccc2cc(C(=O)N3CCCC(N(C)C)C3)[nH]c12` (stereo not shown) [compound 799], above 200 µM.
`Cc1cccc2cc(C(=O)NCCc3ccc(Cl)cc3N3CCOCC3)[nH]c12` [compound 653]: the IC50 was above 25 µM.
The same measure for `Cc1cccc2cc(C(=O)NCc3ccc(CN4CCOCC4)cc3)[nH]c12` [compound 755]: above 200 µM; for `COC(=O)CC(NC(=O)c1cc2cccc(C)c2[nH]1)c1ccsc1` (stereo not shown) [compound 649]: 22.3 µM.
For the compound `Cc1cccc2cc(C(=O)NC(c3cccc(F)c3)C(F)(F)F)[nH]c12` (stereo not shown) [compound 642], the IC50 was 18.6 µM.
On to `Cc1ccc(F)c2cc(C(=O)Nc3cccc(N4C5CCC4CN(C)C5)c3)[nH]c12` [compound 349], for which the IC50 is 0.2 µM.
In the case of `Cc1cccc2cc(C(=O)NC(c3ncccc3Cc3ccccc3)C3CC3)[nH]c12` (stereo not shown) [compound 817] it was above 200 µM; in that of `Cc1noc(C(C)NC(=O)c2cc3cccc(C)c3[nH]2)n1` (stereo not shown) [compound 735], 165 µM; in that of `Cc1cccnc1C(NC(=O)c1cc2cccc(C(C)C)c2[nH]1)C1CC1` (stereo not shown) [compound 802], above 200 µM.
In the case of `CCc1c(C(=O)N[C@H]2CC[C@H](NC(=O)CCN)CC2)[nH]c2c(C)cccc12` [compound 711] it was 85.9 µM.
In the case of `Cc1cc(C)c2[nH]c(C(=O)N[C@H]3CC[C@H](NC(=O)CCN)CC3)cc2c1` [compound 738] it was 179 µM.
As to `Cc1cccc2cc(C(=O)NCC3CCCO3)[nH]c12` (stereo not shown) [compound 747], the IC50 is above 200 µM.
For `COC(=O)CC(NC(=O)c1cc2cccc(C)c2[nH]1)c1ccc(Br)cc1` (stereo not shown) [compound 778], the IC50 was above 200 µM.
The same measure for `Cc1ccccc1C(O)CNC(=O)c1cc2cccc(C)c2[nH]1` (stereo not shown) [compound 686]: 51.3 µM; for `Cc1cccc2cc(C(=O)N3CCCC3C(N)=O)[nH]c12` (stereo not shown) [compound 786]: above 200 µM; for `Cc1cccc2cc(C(=O)N[C@H](c3ccccc3)C(F)(F)F)[nH]c12` [compound 726]: 124 µM.
For the compound `Cc1cccc2cc(C(=O)Nc3cn4ccccc4n3)[nH]c12` [compound 796], the IC50 was above 200 µM.
In the case of `CCOC(=O)N1CCC(NC(=O)c2cc3cccc(C)c3[nH]2)CC1` [compound 628], the IC50 came to 13.3 µM.
For `COc1ccc(C(O)CNC(=O)c2cc3cccc(C)c3[nH]2)cc1` (stereo not shown) [compound 754], the IC50 was above 200 µM.
The same measure for `Cc1cccc2cc(C(=O)NC(CO)c3ccccc3)[nH]c12` (stereo not shown) [compound 705]: 71.6 µM; for `CCc1cccc2cc(C(=O)NC(c3ccccn3)C3CC3)[nH]c12` (stereo not shown) [compound 803]: above 200 µM; for `COC(=O)CC(NC(=O)c1cc2cccc(C)c2[nH]1)c1ccc(OC)cc1` (stereo not shown) [compound 777]: above 200 µM.
In the case of `Cc1cccnc1C(NC(=O)c1cc2cccc(C(F)(F)F)c2[nH]1)C1CC1` (stereo not shown) [compound 717] it was above 100 µM; in that of `COC(=O)C[C@@H](NC(=O)c1cc2cccc(C)c2[nH]1)c1cccnc1` [compound 658], 26.8 µM.
The same measure for `Cc1cccc2cc(C(=O)NCCN3CCOCC3)[nH]c12` [compound 746]: above 200 µM; for `Cc1cccc2cc(C(=O)Nc3ccc(CN4CCOCC4)cc3)[nH]c12` [compound 691]: 56.2 µM; for `CCOC(=O)N1CCN([C@@H]2CCC[C@@H](NC(=O)c3cc4c(F)ccc(C)c4[nH]3)C2)CC1` [compound 825]: 1.2 µM.
For the compound `Cc1cccc2cc(C(=O)NCC(O)C(F)(F)F)[nH]c12` (stereo not shown) [compound 678], the IC50 was found to be 39.7 µM.
In the case of `Cc1cccc2cc(C(=O)NCc3ccccc3N3CCNCC3)[nH]c12` [compound 636] it was 16.8 µM.
For `Cc1ccc(F)c2cc(C(=O)NC3CCCC(N4CCn5c(n[nH]c5=O)C4)C3)[nH]c12` (stereo not shown) [compound 1106], the IC50 came out at 3 µM.
In the case of `Cc1cccc2cc(C(=O)Nc3cccnc3)[nH]c12` [compound 795] it was above 200 µM; in that of `Cc1cccc2cc(C(=O)N[C@H]3CC[C@](C)(NC(=O)CCN)CC3)[nH]c12` [compound 629], 14.5 µM; in that of `Cc1cccc2cc(C(=O)NCc3cocn3)[nH]c12` [compound 733], 147 µM.
In the case of `Cc1cccc2cc(C(=O)Nc3ccncc3)[nH]c12` [compound 632] it was 15.6 µM; in that of `Cc1cccc2cc(C(=O)Nc3cncnc3)[nH]c12` [compound 665], 32.7 µM; in that of `Cc1cccc2cc(C(=O)NC3C4CCC3CC(NC(=O)CCN)C4)[nH]c12` (stereo not shown) [compound 685], 50.5 µM.
The same measure for `Cc1ccc(F)c2cc(C(=O)NC3C(=O)N(C)CCc4ccccc43)[nH]c12` (stereo not shown) [compound 390]: 0.5 µM; for `Cc1cccc2cc(C(=O)N3CCCC(N)C3)[nH]c12` (stereo not shown) [compound 794]: above 200 µM.
Regarding `Cc1cccc2cc(C(=O)N3CCN(CC(N)=O)CC3)[nH]c12` [compound 781], the IC50 was above 200 µM.
The same measure for `NC1CCC(NC(=O)c2cc3cccc(Br)c3[nH]2)CC1` (stereo not shown) [compound 706]: 71.9 µM; for `Cc1ccc(F)c2cc(C(=O)N[C@@H]3CCC[C@@H](N4CCN(CC(F)(F)F)CC4)C3)[nH]c12` [compound 827]: 7.6 µM.
The same measure for `Cc1cccc2cc(C(=O)NC(C)CNC(=O)OC(C)(C)C)[nH]c12` (stereo not shown) [compound 766]: above 200 µM; for `CCOC(=O)CC(NC(=O)c1cc2cccc(C)c2[nH]1)c1ccncc1` (stereo not shown) [compound 700]: 68.9 µM; for `Cc1cccc2cc(C(=O)NCc3ccccc3N(C)C)[nH]c12` [compound 638]: 18.1 µM.
The same measure for `Cc1cccc2cc(C(=O)N[C@H]3CC[C@H](NC(=O)C(F)(F)F)CC3)[nH]c12` [compound 791]: above 200 µM.
For `Cc1cccc2cc(C(=O)NC3CCCc4ccccc43)[nH]c12` (stereo not shown) [compound 753], the IC50 is above 200 µM.
